The source of these data is PMC12640663 (Chemmedchem, 2025).

Entries after “also recorded” stand apart in the source; their conditions may differ.

A word on the IC50: it is the concentration at which inhibition is half-maximal. A high value points to weaker potency in that assay. By Ki is commonly meant a dissociation constant, usually derived from enzyme kinetics or from competition with a known ligand. Low readings indicate higher affinity, high ones lower affinity.

In one data set the target is T1, hPTP1B1–285 (Homo sapiens, UniProt P18031).
T1 construct: hPTP1B1–285 (the short form with an N‐terminal catalytic domain)
T1 sequence (P18031 1-285): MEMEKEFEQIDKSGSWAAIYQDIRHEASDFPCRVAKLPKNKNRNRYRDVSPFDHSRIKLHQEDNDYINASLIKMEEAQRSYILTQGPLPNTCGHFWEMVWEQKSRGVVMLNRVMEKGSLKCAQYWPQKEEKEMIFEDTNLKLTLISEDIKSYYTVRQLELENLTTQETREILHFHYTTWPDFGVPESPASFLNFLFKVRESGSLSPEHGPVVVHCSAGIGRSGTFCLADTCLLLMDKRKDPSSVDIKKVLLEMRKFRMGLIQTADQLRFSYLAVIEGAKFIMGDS
The data set can be described thus: PTP1B activity assay, short form hPTP1B1–285 (p‐NPP). The class given is biochemical. The following applies: ± S.D; p‐NPP substrate, 15 min at 37 °C. As for the experimental part:
The inhibitory activity of PTP1B was assessed using two enzyme variants: hPTP1B1–285 (the short form with an N‐terminal catalytic domain) and hPTP1B1–400 (the long form with an intrinsically disordered C‐terminal regulatory domain). […] According to Coronel‐Tovar et al., the disordered region of the C‐terminal domain plays a crucial role in modulating PTP1B enzymatic activity.^[ [30] ^] […] Different concentrations of the compounds were evaluated to determine their IC50 values (Table 1 ).
To do so, these terpenoids were tested against hPTP1B1–285.
Recombinant human protein tyrosine phosphatase 1B, consisting of 400 and 285 amino acid residues, was used.^[ [35] ^] […] Aliquots of 0–10 µL of the test compounds (triplicate) were taken and incubated for 15 min at 37 °C with 85 µL of Tris buffer solution (50 mM, pH 6.8) containing PTP1B enzyme and 5 µL of p‐nitrophenyl phosphate substrate (p‐NPP, 10 mM). Absorbance was then measured at a wavelength of 405 nm. The inhibitory activity was determined according to Equation (1). (1) % PTP1B=(A405b/A405c)×100 where % PTP1B: Is the percentage of inhibition. A 405c: Is the corrected absorbance of the blank (A 405initial–A 405final). A 405b: Is the corrected absorbance of the compounds (A 405control–A 405compound).

For a further data set, the system named is HepG2 cells. The data set can be described thus: Cell viability with crystal violet. As to conditions: 1 and 25 µM, 24 h. The class given is cell-based. As for the experimental part: Subsequently, we evaluated the same compounds in a HepG2 insulin‐resistant model.
A 96‐well plate was seeded with 3,000 cells per well and incubated for 24 h. Afterward, the cells were treated with test compounds at various concentrations for 24 h. After incubation, the media was removed, and 100 µL of 1% glutaraldehyde was added for 15 min. Afterward, the liquid was removed, and 50 µL of 0.5% crystal violet (dissolved in 25% methanol) was added for 30 min. The crystal violet staining solution was removed, and the plate was thoroughly washed with tap water. The precipitate was dissolved in a 10% acetic acid solution and mixed for 15 min. The absorbance was then measured at 590 nm using a plate reader (xMark Microplate Spectrophotometer—Bio‐Rad).
Figure S59. Cell viability assessment by crystal violet staining. HepG2 cell viability was evaluated
after treatment with the respective compounds at concentrations of 1 and 25 µM for 24 hours. Bar
graphs represent mean ± SEM.

Another data set concerns the target T2, hPTP1B1–400 (Homo sapiens, UniProt P18031).
T2 sequence (P18031 1-400): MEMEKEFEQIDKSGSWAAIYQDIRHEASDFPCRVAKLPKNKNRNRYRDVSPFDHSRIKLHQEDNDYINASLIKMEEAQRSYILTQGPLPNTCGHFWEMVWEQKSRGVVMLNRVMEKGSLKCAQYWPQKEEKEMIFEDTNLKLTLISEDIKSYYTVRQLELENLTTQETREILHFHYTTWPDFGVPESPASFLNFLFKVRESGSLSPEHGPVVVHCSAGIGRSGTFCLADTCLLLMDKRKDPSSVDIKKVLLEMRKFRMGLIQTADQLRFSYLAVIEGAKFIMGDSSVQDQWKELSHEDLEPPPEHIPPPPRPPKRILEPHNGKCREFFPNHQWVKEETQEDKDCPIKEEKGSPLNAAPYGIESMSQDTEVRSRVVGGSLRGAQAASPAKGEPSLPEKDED
The data set can be described thus: Kinetic studies of PTP1B (hPTP1B1–400).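 Also: enzyme kinetics run across a range of substrate and inhibitor levels, control lacking inhibitor, triplicate runs, parameters derived by fitting Michaelis–Menten style equations.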

Where [1] appears, read: ± S.D, hPTP1B1–400 with inhibitor.

Protocol for hPTP1B1–400: Kinetic analyses were performed at various substrate and inhibitor concentrations.
The negative control was prepared with the enzyme and substrate in the absence of the inhibitor. Experiments were conducted in triplicate.^[ [30] ^] […] The kinetic parameters of enzyme inhibition, K m and V max, were determined by fitting the data to the Michaelis‐Menten model, Equation (3) (OriginPro 2018 (64‐bit) SR1). (3) y=VmaxX/Km+X´ where V max: is the maximum velocity, X: is the inhibitor concentration, K m: Michaelis constant.
(4) y=Vmax(X)/(Km/1+I/Ki)+X where V max: maximum velocity, X: substrate concentration, I: inhibitor concentration, K m: Michaelis constant, K i : inhibition constant.

`CC1(C(=O)O)CCC2(C)CCC3(C)C(=CC(=O)C4C5(C)Cc6c([nH]c7ccc(C(F)(F)F)cc67)C(C)(C)C5CCC43C)C2C1` (stereo not drawn) [Compound 3c] had an IC50 against hPTP1B1–285 of 14.9 ± 0.95 µM. The HepG2 cell viability entry with HepG2 cells was “No significant differences; also recorded: did not compromise HepG2 cell viability”. In addition, on hPTP1B1–400 (K i, ± S.D, hPTP1B1–400, p‐NPP 0.1 to 0.5 mM), the Ki was determined as 0.071 ± 0.008 µM. Also, on hPTP1B1–400 (hPTP1B1–400), the Inhibition type entry was “uncompetitive inhibition”. At hPTP1B1–400 (setting [1]), this compound displayed a K m of 520 ± 70 µM and a V max of 0.62 ± 0.05 mM/min.
